Laboratory results from a melting point compilation (Tetko et al.).

SMILES | melting point
CN(c1ccc(O)cc1)S(=O)(=O)c1cccs1 | 149 to 151 °C
Cn1cc(CO)c(-c2ccccc2)n1 | 107 to 109 °C
O=C(c1cc(Cl)c[nH]1)N1CCCNCC1 | 116 to 118 °C
CCN(C)S(=O)(=O)c1c(C)n[nH]c1C | 61 to 63 °C
CC(=O)c1cncnc1 | 63 to 65 °C
N#CCN1CCN(Cc2ccccc2)CC1 | 49 to 51 °C
CC(C)n1ncc2cc(S(=O)(=O)Cl)ccc21 | 88 to 90 °C
O=C1Nc2c(ccc(Cl)c2Cl)C1=O | 203 to 205 °C
COc1cc(C#N)cc(Cl)c1O | 141 to 143 °C
CN(Cc1ccccc1)S(=O)(=O)c1ccc(N)cc1 | 127 to 131 °C
O=C(O)c1cccc(CS)c1 | 104 to 106 °C
Nc1ncn(Cc2cccc(Br)c2)n1 | 147 to 149 °C
CC(NC(=O)c1ccc(Cl)cc1)C(=O)O (stereo unspecified) | 158 to 160 °C
O=C(Nc1cc(Cl)ccc1C(=O)O)c1cccs1 | 267 to 269 °C
N#Cc1ccc(F)c(CN2CCCC2=O)c1 | 92 to 94 °C
NS(=O)(=O)c1ccc(Cl)c2ccccc12 | 181 to 183 °C
N#Cc1ccccc1Sc1ccccc1C(=O)O | 213 to 216 °C
COCc1nc(Cl)cc(Cl)n1 | 43 to 45 °C
NC(c1ccncc1)c1ccc(F)cc1 (stereo unspecified) | 63 to 65 °C
CC(=O)Nc1cccc(N2C(=O)C=CC2=O)c1 | 185 to 187 °C
Nc1nc(-c2cccc(Br)c2)cs1 | 121 to 125 °C
O=C(CCl)Nc1cccc(S(=O)(=O)N=C2CCCN2)c1 | 156 to 160 °C
CC(=O)NCCNCc1ccccc1 | 51 to 53 °C
O=c1[nH][nH]c2ncc(Br)cc12 | 219 to 221 °C

SMILES | melting point
Cc1cccc(NC2=NC(=O)CS2)c1 | 160 to 162 °C
Nc1cc(S(N)(=O)=O)ccc1S | 220 to 222 °C
COC(=O)c1c[nH]nn1 | 139 to 141 °C
Clc1ccc(Cn2cc(Br)cn2)cc1 | 71 to 73 °C
Nc1nc(S)nc2sccc12 | 275 to 277 °C
c1cc2[nH]nnc2cn1 | 240 to 242 °C
Cn1cccc1C(=O)NC1CCNCC1 | 195 to 197 °C
CN(C)c1nc(CC#N)nc(=N)[nH]1 | 139 to 141 °C
Cc1nc2ccccc2nc1Br | 102 to 104 °C
Cn1c(N)nc2c(F)cccc21 | 163 to 165 °C
O=Cc1cc(Cl)cc2c1OCC2 | 85 to 87 °C
CCCCCC(=O)Nc1ccc(C(=O)CCl)cc1 | 179 to 181 °C
CSC(=CC(=O)c1ccccc1)SC | 92 to 94 °C
CC(C)Cc1nc(C#N)c(NN)o1 | 102 to 104 °C
O=C(O)C(c1ccccc1)N1C(=O)CCC1=O (stereo unspecified) | 194 to 196 °C
O=C(O)c1ccccc1Oc1cccc(Br)c1 | 108 to 110 °C
O=[N+]([O-])c1cnn(CC2CO2)c1 (stereo unspecified) | 68 to 70 °C
N#Cc1ccc(NCCO)cc1 | 84 to 86 °C
[N-]=[N+]=Nc1ccc(Cl)cc1C(F)(F)F | 32 to 34 °C
O=C(O)c1csc(-c2ccc3c(c2)OCCO3)n1 | 199 to 201 °C
NC(=O)c1coc(Br)c1 | 165 to 167 °C
Cc1cc(-c2csc(N)n2)c(F)cc1F | 219 to 221 °C
CC(=O)c1c[nH]cc1-c1ccccc1 | 156 to 158 °C
Cc1ccc(-c2noc(Cl)n2)cc1 | 40 to 42 °C

SMILES | melting point
O=C(O)CCNc1ccc(C(F)(F)F)cc1[N+](=O)[O-] | 130 to 134 °C
O=C(O)C1=CCCCO1 | 66 to 68 °C
O=C(O)Cc1ccc(-n2cccn2)cc1 | 130 to 132 °C
O=C1CC(=O)N(c2cccnc2)C(=S)N1 | 229 to 231 °C
Cn1cccc1C(=O)NN | 113 to 115 °C
CC(C)(C)OC(=O)NC(C(=O)O)c1ccccc1 (stereo unspecified) | 113 to 115 °C
O=C1NCCNC1(O)C(F)(F)F (stereo unspecified) | 144 to 146 °C
CC1CNC(=O)N(c2ccccc2)C1=O (stereo unspecified) | 174 to 176 °C
N#Cc1ccccc1-c1ccc(CN)cc1 | 53 to 55 °C
Nc1cnc(-c2ccccc2)nc1 | 81 to 83 °C
CC(=O)Nc1ccc(S(=O)(=O)NCCC(=O)O)cc1 | 160 to 162 °C
CC(C)c1noc(N)n1 | 101 to 103 °C
CN(CC(=O)O)c1ccc(Cl)cn1 | 135 to 137 °C
CNS(=O)(=O)c1cccc(S(=O)(=O)Cl)c1 | 98 to 100 °C
CC(C)c1nnc(S)[nH]1 | 156 to 158 °C
Cc1n[nH]c(-c2ccccc2N)n1 | 153 to 155 °C
CC(Nc1ccccn1)c1ccco1 (stereo unspecified) | 136 to 138 °C
CC(C)(C)Oc1cccc(CCC(=O)O)n1 | 82 to 84 °C
Cc1cc(C#N)ccc1Oc1ccc(C(=O)O)cc1 | 212 to 214 °C
NS(=O)(=O)c1ccc(NC(=O)OCC(F)(F)F)cc1 | 192 to 194 °C
Nc1cccc(C(=O)Nc2ccccn2)c1 | 111 to 113 °C
O=C(O)Cc1csc(-c2c(Cl)cccc2Cl)n1 | 142 to 144 °C
c1c[nH]c(C2CCNCC2)n1 | 176 to 178 °C
O=C(CCl)NCc1ccccc1S(=O)(=O)N1CCCCC1 | 89 to 91 °C

SMILES | melting point
CN1CCC(O)(Cc2ccccc2Cl)CC1 | 73 to 75 °C
O=S(=O)(Cl)c1ccc(OCc2ccccc2)cc1 | 95 to 97 °C
c1ccc2c(c1)C1CCC2N1 | 92 to 94 °C
O=C(O)c1ccn(Cc2ccccc2)c1 | 150 to 152 °C
OCc1c(Cl)ccc2cccnc12 | 93 to 95 °C
O=C1C=CC(=O)N1c1ccccc1Sc1ccccc1 | 51 to 53 °C
O=C1CNc2cccc(F)c2N1 | 161 to 163 °C
CCc1ccc2c(c1)C(=O)C(=O)N2 | 114 to 116 °C
NC(=NO)c1cccc(Cn2cnc3ccccc32)c1 | 226 to 228 °C
NCc1noc(-c2ccco2)n1 | 143 to 145 °C
CC(C)(C)Cc1nc2cc(N)ccc2o1 | 83 to 85 °C
CN1CCN(S(=O)(=O)c2ccc(N)cc2)CC1 | 231 to 233 °C
CC(C)(C)C(=O)Cn1cc(C(=O)O)nn1 | 198 to 200 °C
NS(=O)(=O)c1cc(Br)cnc1Cl | 119 to 121 °C
Cc1ccc(-c2cc(C(=O)O)c3ccccc3n2)cc1 | 180 to 184 °C
O=C(O)CCCCCc1cccs1 | 43 to 45 °C
Brc1nnc(Br)s1 | 104 to 106 °C
CN1NC=C2CN=C(Cl)N=C21 | 189 to 191 °C
O=C(O)CNS(=O)(=O)c1ccc2c(c1)nnn2O | 229 to 231 °C
CC(=O)Nc1c(Cl)cc(Br)c2ccccc12 | 227 to 229 °C
O=C(O)c1csc(S(=O)(=O)Cl)c1 | 130 to 132 °C
CC(=O)c1cccc(OCC(=O)O)c1 | 119 to 121 °C
Cc1cc(-c2nc3cc(F)ccc3s2)ccc1N | 191 to 193 °C
CC(Cl)C(=O)NC(N)=O (stereo unspecified) | 159 to 161 °C

Second part, the compound after the results:

melting point | SMILES
202 to 204 °C | CC(NS(=O)(=O)c1ccc(N)cc1)C1CC2CCC1C2 (stereo unspecified)
104 to 106 °C | Cc1cccc(C)c1NC(=O)CCCCl
136 to 138 °C | CCCCn1c(CCC(=O)O)nc2cc(S(=O)(=O)N3CCOCC3)ccc21
178 to 180 °C | Cc1cc(C(=O)O)sc1-c1cccc(Cl)c1
112 to 114 °C | CCNS(=O)(=O)c1ccc2c(c1)NCC2
169 to 171 °C | CC(C)(C)OC(=O)NC1CCN(CC(N)=S)CC1
183 to 185 °C | Cc1cc(=O)n2nc(CCl)sc2n1
119 to 121 °C | Cc1ccccc1-c1cnc(N)s1
35 to 37 °C | COC(=O)CCOc1ccc(Cl)cc1Cl
56 to 58 °C | Cc1ccc(C)c(OCCCCC(=O)O)c1
217 to 219 °C | NC(=O)c1sc2ccccc2c1N
61 to 63 °C | NCC1(C(N)=O)CCCC1
99 to 101 °C | COC(=O)CCNC(=O)c1ccc(N)cc1
79 to 81 °C | CCNC(=O)COc1cccc(C(C)N)c1 (stereo unspecified)
112 to 115 °C | COc1cc2c(cc1OC)C(c1cccs1)NCC2 (stereo unspecified)
103 to 105 °C | CNC(=S)NCCN1CCOCC1
69 to 71 °C | Nc1cccc(-c2noc(C3CC3)n2)c1
155 to 157 °C | CCOC(=O)/C(C#N)=C/Nc1ccc(I)cc1
189 to 191 °C | COC(=O)N1CCc2n[nH]c(=O)cc2C1
123 to 127 °C | CCc1ccccc1OCC(=O)O
74 to 76 °C | COC(=O)c1cccc(CC(=O)O)c1
53 to 57 °C | CC(C)(C)OC(=O)NCC#N
44 to 46 °C | CN(C)C(=O)Sc1cccc(CCl)c1
109 to 111 °C | CCCCOc1ccc(C=CC(=O)O)cc1OCC
88 to 90 °C | CCOC(=O)c1c(N)sc2c1CCC(CC)C2 (stereo unspecified)

melting point | SMILES
133 to 135 °C | CN1CCN(C(=O)c2cc(N)ccn2)CC1
99 to 101 °C | O=C(c1ccc(Br)cc1)C1CCOCC1
133 to 135 °C | CCN(CC)S(=O)(=O)c1cccc(C(=O)NN)c1
210 to 215 °C | Cc1noc(C)c1S(=O)(=O)N1CCC(C(=O)O)CC1
101 to 103 °C | Nc1cccc(OCC(=O)N2CCCC2)c1
79 to 81 °C | NNC(=O)NCC1CCCO1 (stereo unspecified)
116 to 118 °C | CCC(=CC(=O)O)c1ccc(C)cc1
129 to 131 °C | CCOC(=O)c1[nH]cnc1N
155 to 157 °C | O=C(O)C1(Cc2nc3ccccc3s2)CCCC1
126 to 128 °C | CCOC(=O)COc1ccc(C(N)=S)cc1
184 to 186 °C | Cc1nn(CCO)c2nc(C3CC3)cc(C(=O)O)c12
193 to 195 °C | COc1ccccc1NC(=O)c1ccc(NC(=O)CCCl)cc1
131 to 133 °C | CC(C)(C)C1CCc2nc(N)sc2C1 (stereo unspecified)
68 to 70 °C | CCOC(=O)c1cc(N)c2c(c1)OCO2
37 to 39 °C | CCOc1ccc(CO)cc1OCC
131 to 133 °C | CCN(CC)S(=O)(=O)c1ccc2c(c1)CCCN2
168 to 170 °C | CCOC(=O)c1c(NC(=O)CCl)sc(C(=O)OC(C)(C)C)c1C
107 to 109 °C | CCOc1ccc(-c2nc(CO)cs2)cc1
135 to 137 °C | CN1CCN(C(=O)c2ccc(N)cc2)CC1
193 to 195 °C | Cc1c(N)cccc1NC(=O)c1ccccc1
142 to 144 °C | CCOc1cn(-c2ccccc2)nc1C(=O)O
123 to 125 °C | CC(C)C(=O)N1CCCCC1C(=O)O (stereo unspecified)
229 to 231 °C | COc1ccccc1-c1cc(C(=O)O)c2c(C)noc2n1
67 to 69 °C | CC(=O)c1ccc(N2CCCCC2)c(F)c1
82 to 84 °C | CC(=O)c1cccc(N2CCOC2=O)c1
